The text below walks through data of patent publication US8163766B2, “Beta-secretase modulators and methods of use” (Amgen Inc., priority 2005, dated 2012).

The experiment relates to Aβ 40 in conditioned media of cells stably expressing Amyloid Precursor Protein (APP). The experiment is described as follows: BACE Cell-Based Assay (Aβ40 in conditioned medium, sandwich ELISA). To be noted: 24 hours of incubation with the test compounds, Aβ 40 by sandwich ELISA, read-out: IC50 values in the cell-based assay (inhibition of Aβ 40). The method, then:
The cell-based assay measures inhibition or reduction of Aβ40 in conditioned medium of test compound treated cells, which express amyloid precursor protein.
Cells stably expressing Amyloid Precursor Protein (APP) were plated at a density of 40K cells/well in 96 well plates (Costar). The cells were cultivated for 24 h at 37° C. and 5% CO2 in DMEM supplemented with 10% FBS. The test compounds were then added to cells in 10-point dose response concentrations with the starting concentration being either 100 μM or 10 μM. The compounds were diluted from stock solutions in DMSO and the final DMSO concentration of the test compounds on cells was 0.1%. After 24 hours of incubation with the test compounds the supernatant conditioned media was collected and the Aβ 40 levels were determined using a sandwich ELISA. The IC50 of the compound was calculated from the percent of control or percent inhibition of Aβ 40 as a function of the concentration of the test compound.
The sandwich ELISA to detect Aβ 40 was performed in 96 well microtiter plates, which were pre-treated with goat anti-rabbit IgG (Pierce). The capture and detecting antibody pair that were used to detect Aβ 40 from cell supernatants were affinity purified pAb40 (Biosource) and biotinylated 6E10 (Signet Labs Inc.), respectively. The optimal concentration for the pAb40 antibody was 3 μg/ml in Superblock/TBS (Pierce) that was supplemented with 0.05% Tween 20 (Sigma). Optimal concentration for the detection antibody 6E10-biotinylated was […] in Superblock/TBS (Pierce) that had been supplemented with 2% normal goat serum and 2% normal mouse serum.
Cellular supernatants were incubated with the capture antibody for 3 h at 4° C., followed by 3 wash steps in TBS-tween (0.05%). The detecting antibody incubation was for 2 h at 4° C., again followed by the wash steps as described previously. The final readout of the ELISA is Time-Resolved Fluorescence (counts per minute) using Delfia reagents Streptavidin-Europium and Enhancement solutions (Perkin Elmer) and the Victor 2 multilabel counter (Perkin Elmer).
A general note: An ELISA detects its analyte on a solid surface through an enzyme-linked reagent.
For `CCc1ccc2c(c1)C(NC[C@@H](O)[C@H](Cc1ccccc1)NC(=O)c1cc(C#N)c(=O)n(C3CCCC3)c1)CC1(CCCC1)O2` (stereo partly shown) [Example 1], the IC50 (commonly the point on the concentration scale where inhibition reaches its midpoint) was no more than 5 µM.

In the case of `CCc1ccc2c(c1)C(NC[C@@H](O)[C@H](Cc1ccccc1)NC(=O)c1ccc(=O)n(C3CCCC3)c1)CC1(CCCC1)O2` (stereo partly shown) [Example 2], the concentration for half-maximal inhibition (IC50) was no more than 5 µM.

On to `CCc1ccc2c(c1)C(NC[C@@H](O)[C@H](Cc1ccccc1)NC(=O)c1cc(-c3ccccc3F)c(=O)n(C3CCCC3)c1)CC1(CCCC1)O2` (stereo partly shown) [Example 3], for which the IC50 is no more than 5 µM.

`CCc1ccc2c(c1)C(NC[C@@H](O)[C@H](Cc1ccccc1)NC(=O)c1cc(-c3ccccn3)c(=O)n(C3CCCC3)c1)CC1(CCCC1)O2` (stereo partly shown) [Example 5]: the IC50 is no more than 5 µM.

On to `CCc1ccc2c(c1)C(NC[C@@H](O)[C@H](Cc1ccccc1)NC(=O)c1cc(-n3cccn3)c(=O)n(C3CCCC3)c1)CC1(CCCC1)O2` (stereo partly shown) [Example 6], for which the IC50 is no more than 5 µM.

With `CCc1ccc2c(c1)C(NC[C@@H](O)[C@H](Cc1ccccc1)NC(=O)c1cc(-c3ccc(F)cc3)c(=O)n(C3CCCC3)c1)CC1(CCCC1)O2` (stereo partly shown) [Example 7], the IC50 was no more than 5 µM.

As to `CCc1ccc2c(c1)C(NC[C@@H](O)[C@H](Cc1ccccc1)NC(=O)c1cc(-c3ccccc3)c(=O)n(C3CCCC3)c1)CC1(CCCC1)O2` (stereo partly shown) [Example 8], the IC50 is no more than 5 µM.

`CCc1ccc2c(c1)C(NC[C@@H](O)[C@H](Cc1ccccc1)NC(=O)c1cc(-c3cccc(F)c3)c(=O)n(C3CCCC3)c1)CC1(CCCC1)O2` (stereo partly shown) [Example 9]: the half-inhibitory concentration (IC50) is no more than 5 µM.

Consider `CCc1ccc2c(c1)C(NC[C@@H](O)[C@H](Cc1ccccc1)NC(=O)c1ccc(=O)n(C3CCC(c4ccccc4)C3)c1)CC1(CCCC1)O2` (stereo partly shown) [Example 10], for which the half-maximal inhibitory concentration (IC50) is no more than 5 µM.

For `CCc1ccc2c(c1)C(NC[C@@H](O)[C@H](Cc1ccccc1)NC(=O)c1ccc(=O)n(C3CCCC(c4ccccc4)C3)c1)CC1(CCCC1)O2` (stereo partly shown) [Example 12], the IC50 was no more than 5 µM.

Turning to `CCc1ccc2c(c1)C(NC[C@@H](O)[C@H](Cc1ccccc1)NC(=O)c1cc(-c3cccnc3)c(=O)n(C3CCCC3)c1)CC1(CCCC1)O2` (stereo partly drawn) [Example 14, 1-cyclopentyl-N-((2S,3R)-4-(6-ethyl-2,2-spirocyclopentylchroman-4-ylamino)-3-hydrodroxy-1-phenylbutan-2-yl)-6-OXO-5-(pyridine-3-yl)-1,6-dihydropyridine-3-carboxamide], the IC50 is no more than 5 µM.

Regarding `CCc1ccc2c(c1)C(NC[C@@H](O)[C@H](Cc1ccccc1)NC(=O)c1cc(-c3ccncc3)c(=O)n(C3CCCC3)c1)CC1(CCCC1)O2` (stereo partly drawn) [Example 15, 1-cyclopentyl-N-((2S,3R)-4-(6-ethyl-2,2-spirocyclopentylchroman-4-ylamino)-3-hydrodroxy-1-phenylbutan-2-yl)-6-OXO-5-(pyridin-4-yl)-1,6-dihydropyridine-3-carboxamide], the IC50 is no more than 5 µM.

Consider `CCc1ccc2c(c1)C(NC[C@@H](O)[C@H](Cc1ccccc1)NC(=O)c1cc(-c3cncnc3)c(=O)n(C3CCCC3)c1)CC1(CCCC1)O2` (stereo partly drawn) [Example 16, 1-cyclopentyl-N-((2S,3R)-4-(6-ethyl-2,2-spirocyclopentylchroman-4-ylamino)-3-hydrodroxy-1-phenylbutan-2-yl)-6-OXO-5-(pyrimidin-5-yl)-1,6-dihydropyridine-3-carboxamide], for which the IC50 is no more than 5 µM.

On to `CCc1ccc2c(c1)C(NC[C@@H](O)[C@H](Cc1ccccc1)NC(=O)c1cc(N3CCCC3)c(=O)n(C3CCCC3)c1)CC1(CCCC1)O2` (stereo partly drawn) [Example 17, 1-cyclopentyl-N-((2S,3R)-4-(6-ethyl-2,2-spirocyclopentylchroman-4-ylamino)-3-hydrodroxy-1-phenylbutan-2-yl)-6-OXO-5-(pyrrolidin-1-yl)-1,6-dihydropyridine-3-carboxamide], for which the IC50 is no more than 5 µM.

In the case of `CCc1ccc2c(c1)C(NC[C@@H](O)[C@H](Cc1ccccc1)NC(=O)c1cc(NC(C)C)c(=O)n(C3CCCC3)c1)CC1(CCCC1)O2` (stereo partly drawn) [Example 18, 1-cyclopentyl-N-((2S,3R)-4-(6-ethyl-2,2-spirocyclopentylchroman-4-ylamino)-3-hydrodroxy-1-phenylbutan-2-yl)-5-(isopropylamino)-6-oxo-1,6-dihydropyridine-3-carboxamide], the IC50 was no more than 5 µM.

For the molecule `CCc1ccc2c(c1)C(NC[C@@H](O)[C@H](Cc1ccccc1)NC(=O)c1cc(N(C)C)c(=O)n(C3CCCC3)c1)CC1(CCCC1)O2` (stereo partly drawn) [Example 19, 1-cyclopentyl-5-(dimethylamino)-N-((2S,3R)-4-(6-ethyl-2,2-spirocyclopentylchroman-4-ylamino)-3-hydrodroxy-1-phenylbutan-2-yl)-6-oxo-1,6-dihydropyridine-3-carboxamide], the IC50 was no more than 5 µM.

Consider `CCc1ccc2c(c1)C(NC[C@@H](O)[C@H](Cc1ccccc1)NC(=O)c1cc(-c3cnccn3)c(=O)n(C3CCCC3)c1)CC1(CCCC1)O2` (stereo partly drawn) [Example 22, 1-cyclopentyl-N-((2S,3R)-4-(6-ethyl-2,2-spirocyclopentylchroman-4-ylamino)-3-hydrodroxy-1-phenylbutan-2-yl)-6-oxo-5-(pyrazin-2-yl)-1,6-dihydropyridine-3-carboxamide], for which the IC50 was no more than 5 µM.

`CCc1ccc2c(c1)C(NC[C@@H](O)[C@H](Cc1ccccc1)NC(=O)c1cc(C3CCCCO3)c(=O)n(C3CCCC3)c1)CC1(CCCC1)O2` (stereo partly drawn) [Example 23, 1-cyclopentyl-N-((2S,3R)-4-(6-ethyl-2,2-spirocyclopentylchroman-4-ylamino)-3-hydrodroxy-1-phenylbutan-2-yl)-6-OXO-5-(tetrahydro-2H-pyran-2-yl)-1,6-dihydropyridine-3-carboxamide]: the IC50 is no more than 5 µM.

In the case of `CCc1ccc2c(c1)C(NC[C@@H](O)[C@H](Cc1ccccc1)NC(=O)c1cc(C3CCCO3)c(=O)n(C3CCCC3)c1)CC1(CCCC1)O2` (stereo partly drawn) [Example 24, 1-cyclopentyl-N-((2S,3R)-4-(6-ethyl-2,2-spirocyclopentylchroman-4-ylamino)-3-hydrodroxy-1-phenylbutan-2-yl)-6-OXO-5-(tetrahydrofuran-2-yl)-1,6-dihydropyridine-3-carboxamide], the IC50 was no more than 5 µM.

For `CCc1ccc2c(c1)[C@@H](NC[C@@H](O)[C@H](Cc1ccccc1)NC(=O)C1CN(Cc3ccccc3)CCO1)CC1(CCCC1)O2` (stereo partly drawn) [Example 29, 4-Benzyl-N-((2S,3R)-4-((S)-6-ethyl-2,2-spirocyclopentylchroman-4-ylamino)-3-hydroxy-1-phenylbutan-2-yl) morpholine-2-carboxamide], the IC50 was no more than 5 µM.

For the molecule `CC(C)c1ccc2c(c1)[C@@H](NC[C@@H](O)[C@H](Cc1ccccc1)NC(=O)C1CCCN(c3ccccn3)C1)CC1(CCCC1)O2` (stereo partly drawn) [Example 32, N-((2S,3R)-3-hydroxy-4-((S)-6-isopropyl-2,2-spirocyclopentylchroman-4-ylamino)-1-phenylbutan-2-yl)-1-(pyridin-2-yl)piperidine-3-carboxamide], the IC50 is no more than 5 µM.

With `CCc1ccc2c(c1)[C@@H](NC[C@@H](O)[C@H](Cc1ccccc1)NC(=O)C1CN(C3CCCC3)c3ccccc3O1)CC1(CCCC1)O2` (stereo partly drawn) [Example 43, 4-Cyclopentyl-N-((2S,3R)-4-((S)-6-ethyl-2,2-spirocyclopentylchroman-4-ylamino)-3-hydroxy-1-phenylbutan-2-yl)-3,4-dihydro-2H-benzo[b][1,4]oxazine-2-carboxamide], the IC50 is no more than 5 µM.
